ChEMBL document CHEMBL1201862, “PubChem BioAssay data set” (2004)
Where a name gives a salt, the structure may show the parent alone.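 Each compound was tested at five concentrations against cells in 96-well plates for 48 hours. GI50 is the concentration that inhibits growth by half.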 Activity calls are given as the source filed them. No stated cut-off is given here; in the data, active = GI50 up to about 1.1 µM and inactive = higher.

Assays:
Experiment in all cases: NCI tumour cell line growth inhibition, 48 h
HCT-15 = test system: HCT-15
NCI-H23 = test system: NCI-H23
OVCAR-8 = test system: OVCAR-8
COLO 205 = test system: COLO 205
MCF7 = test system: MCF7
SNB-75 = test system: SNB-75
NCI/ADR-RES = test system: NCI/ADR-RES
MOLT-4 = test system: MOLT-4
Malme-3M = test system: Malme-3M
SF-295 = test system: SF-295
LOX IMVI = test system: LOX IMVI
OVCAR-5 = test system: OVCAR-5
CCRF-CEM = test system: CCRF-CEM
A549 = test system: A549
SK-MEL-5 = test system: SK-MEL-5
SK-OV-3 = test system: SK-OV-3
HCC 2998 = test system: HCC 2998
SF-268 = test system: SF-268
M14 = test system: M14
IGROV-1 = test system: IGROV-1

SMILES | GI50 (HCT-15) [µM] | GI50 (NCI-H23) | GI50 (OVCAR-8) | GI50 (COLO 205) | GI50 (MCF7) | GI50 (SNB-75) | GI50 (NCI/ADR-RES) | GI50 (MOLT-4) | GI50 (Malme-3M) | GI50 (SF-295) | GI50 (LOX IMVI) | GI50 (OVCAR-5) | GI50 (CCRF-CEM) | GI50 (A549) | GI50 (SK-MEL-5) | GI50 (SK-OV-3) | GI50 (HCC 2998) | GI50 (SF-268) | GI50 (M14) | GI50 (IGROV-1)
O=C(N[C@H]1c2ccsc2/C(=N/O)[C@H]1O)C(F)(F)F | > 100 | > 100 µM (inactive) | > 100 µM (inactive) | > 100 µM (inactive) | > 100 µM (inactive) | > 100 µM (inactive) | > 100 µM (inactive) | > 100 µM (inactive) | > 100 µM (inactive) | > 100 µM (inactive) | > 100 µM (inactive) | > 100 µM (inactive) | > 100 µM (inactive) | > 100 µM (inactive) | > 100 µM (inactive) | > 100 µM (inactive) | > 100 µM (inactive) | > 100 µM (inactive) | > 100 µM (inactive) | > 100 µM (inactive)
CCCc1c(-c2ccccc2)[nH]c2ccccc2c1=O | 27.4 | > 100 µM (inactive) | – | > 100 µM (inactive) | 36.7 µM (inactive) | – | – | > 100 µM (inactive) | 33 µM (inactive) | > 100 µM (inactive) | 23.9 µM (inactive) | 45 µM (inactive) | 41.3 µM (inactive) | – | – | 42.3 µM (inactive) | 25.2 µM (inactive) | 72.4 µM (inactive) | 36.2 µM (inactive) | > 100 µM (inactive)
CCCCn1cc[n+](-c2nc3ccccc3n2C)c1 | > 100 | > 100 µM (inactive) | > 100 µM (inactive) | – | – | 45.4 µM (inactive) | – | > 100 µM (inactive) | > 100 µM (inactive) | > 100 µM (inactive) | > 100 µM (inactive) | > 100 µM (inactive) | > 100 µM (inactive) | > 100 µM (inactive) | > 100 µM (inactive) | > 100 µM (inactive) | > 100 µM (inactive) | > 10 µM (inactive) | > 100 µM (inactive) | > 100 µM (inactive)
c1ccc(Nc2nnc(-c3nsc4ccccc34)o2)cc1 | > 100 | 91.4 µM (inactive) | 48.4 µM (inactive) | > 100 µM (inactive) | – | 34.9 µM (inactive) | – | > 100 µM (inactive) | – | – | > 100 µM (inactive) | > 100 µM (inactive) | 71.1 µM (inactive) | > 100 µM (inactive) | > 100 µM (inactive) | – | > 100 µM (inactive) | > 100 µM (inactive) | > 100 µM (inactive) | > 100 µM (inactive)
CC(=O)Oc1ccc(C2COc3cc(OC(C)=O)c(OC(C)=O)cc3C2)cc1 (stereo unspecified) | 18.5 | 16 µM (inactive) | 18 µM (inactive) | 17.9 µM (inactive) | 19 µM (inactive) | 6.07 µM (inactive) | 20.8 µM (inactive) | 18.3 µM (inactive) | 16.5 µM (inactive) | 22.2 µM (inactive) | > 37.1 µM (inactive) | 56.9 µM (inactive) | 7.57 µM (inactive) | 22.3 µM (inactive) | 2.95 µM (inactive) | 20.7 µM (inactive) | 21.3 µM (inactive) | 13.7 µM (inactive) | – | 12.8 µM (inactive)
C/C(=C\c1ccccc1)C(=O)CCN1CCOCC1 | 16.3 | 16.9 µM (inactive) | 20.5 µM (inactive) | 17.2 µM (inactive) | 7.87 µM (inactive) | 23.7 µM (inactive) | 21.8 µM (inactive) | 19.1 µM (inactive) | 17.5 µM (inactive) | > 100 µM (inactive) | 16.9 µM (inactive) | 18.9 µM (inactive) | 30.6 µM (inactive) | > 90.8 µM (inactive) | 33 µM (inactive) | > 100 µM (inactive) | 16.7 µM (inactive) | 32.1 µM (inactive) | – | 27.4 µM (inactive)
C=CC1(c2ccc3ccccc3c2)OCC(CC)O1 (stereo unspecified) | 45.6 | 32.3 µM (inactive) | > 100 µM (inactive) | 36.1 µM (inactive) | 55 µM (inactive) | 30 µM (inactive) | > 100 µM (inactive) | 25.6 µM (inactive) | 30.5 µM (inactive) | 61.5 µM (inactive) | 21.8 µM (inactive) | 48.9 µM (inactive) | 29.6 µM (inactive) | 47.9 µM (inactive) | 47 µM (inactive) | > 100 µM (inactive) | 94.2 µM (inactive) | 71.6 µM (inactive) | 61.1 µM (inactive) | 33.9 µM (inactive)
CC(C)(CCCCC(C)(C)C1NC(=O)N1)C1NC(=O)N1 | > 10 | > 10 µM (inactive) | > 10 µM (inactive) | > 10 µM (inactive) | > 10 µM (inactive) | > 10 µM (inactive) | > 10 µM (inactive) | > 10 µM (inactive) | > 10 µM (inactive) | > 10 µM (inactive) | > 10 µM (inactive) | > 10 µM (inactive) | > 10 µM (inactive) | > 10 µM (inactive) | > 10 µM (inactive) | > 10 µM (inactive) | > 10 µM (inactive) | > 10 µM (inactive) | > 10 µM (inactive) | > 10 µM (inactive)
C1=C2C3=[N+](CCCCC3)CC2Cc2ccsc21 (stereo unspecified) | > 100 | 49.9 µM (inactive) | 76.6 µM (inactive) | 40.6 µM (inactive) | 50.1 µM (inactive) | 29.9 µM (inactive) | > 100 µM (inactive) | > 100 µM (inactive) | 39.9 µM (inactive) | 44.3 µM (inactive) | 84.7 µM (inactive) | > 100 µM (inactive) | > 100 µM (inactive) | 21.5 µM (inactive) | 53 µM (inactive) | > 100 µM (inactive) | – | 76.2 µM (inactive) | > 100 µM (inactive) | > 100 µM (inactive)
CN1CCc2[nH]c3ccccc3c2C1 | > 100 | > 100 µM (inactive) | > 100 µM (inactive) | > 100 µM (inactive) | > 100 µM (inactive) | > 100 µM (inactive) | > 100 µM (inactive) | > 100 µM (inactive) | > 100 µM (inactive) | > 100 µM (inactive) | > 100 µM (inactive) | > 100 µM (inactive) | > 100 µM (inactive) | > 100 µM (inactive) | > 100 µM (inactive) | > 100 µM (inactive) | > 100 µM (inactive) | > 100 µM (inactive) | – | > 100 µM (inactive)
COc1cc2c(cc1OC)C1Cc3cc(OC)c(OC)cc3C(C2)O1 | – | > 100 µM (inactive) | > 100 µM (inactive) | > 100 µM (inactive) | > 100 µM (inactive) | > 100 µM (inactive) | > 100 µM (inactive) | 49.1 µM (inactive) | – | 95.7 µM (inactive) | > 100 µM (inactive) | > 100 µM (inactive) | 60.1 µM (inactive) | > 100 µM (inactive) | – | > 100 µM (inactive) | > 100 µM (inactive) | > 100 µM (inactive) | > 100 µM (inactive) | 49.8 µM (inactive)
COc1ccc(/C=C2/C(=O)N(C(=O)c3ccccc3O)N=C2C)cc1 | 0.263 | 0.114 µM (active) | 0.238 µM (active) | 18.2 µM (inactive) | 0.617 µM (active) | – | 0.984 µM (active) | 0.244 µM (active) | – | 0.0946 µM (active) | 0.28 µM (active) | 11.2 µM (inactive) | 0.124 µM (active) | 0.175 µM (active) | 0.218 µM (active) | 0.0789 µM (active) | – | 0.202 µM (active) | 16.4 µM (inactive) | 0.0234 µM (active)
CNCCC=C1c2ccccc2CCc2ccccc21 [NORTRIPTYLINE HYDROCHLORIDE] | 17.1 | 15.7 µM (inactive) | 17 µM (inactive) | 7.62 µM (inactive) | 15.7 µM (inactive) | 6.47 µM (inactive) | 15.7 µM (inactive) | 12.1 µM (inactive) | 15.8 µM (inactive) | 14.6 µM (inactive) | 13.2 µM (inactive) | 15.3 µM (inactive) | 12.5 µM (inactive) | 16.6 µM (inactive) | 11.6 µM (inactive) | 12.6 µM (inactive) | – | 15.5 µM (inactive) | 4.25 µM (inactive) | 16.7 µM (inactive)
COc1ccc(C(O)/C(=N\NC(N)=S)c2nc3ccc([N+](=O)[O-])cc3nc2O)cc1OC (stereo unspecified) | – | > 100 µM (inactive) | > 100 µM (inactive) | > 100 µM (inactive) | – | > 100 µM (inactive) | – | 78.3 µM (inactive) | > 100 µM (inactive) | > 100 µM (inactive) | > 100 µM (inactive) | > 100 µM (inactive) | > 100 µM (inactive) | > 100 µM (inactive) | – | > 100 µM (inactive) | > 100 µM (inactive) | > 100 µM (inactive) | > 100 µM (inactive) | > 100 µM (inactive)
ClCCCN1CCCCC1CCl (stereo unspecified) | > 100 | 65.3 µM (inactive) | > 100 µM (inactive) | > 100 µM (inactive) | – | 68.4 µM (inactive) | – | 39.4 µM (inactive) | > 100 µM (inactive) | 70.1 µM (inactive) | > 100 µM (inactive) | > 100 µM (inactive) | 20.9 µM (inactive) | > 100 µM (inactive) | > 100 µM (inactive) | > 100 µM (inactive) | > 100 µM (inactive) | 53.2 µM (inactive) | > 100 µM (inactive) | > 100 µM (inactive)
Cc1cc(C)c(NC(=O)/C=C/c2ccccc2)c(C)c1 | 78 | > 100 µM (inactive) | > 100 µM (inactive) | – | > 100 µM (inactive) | 3.93 µM (inactive) | 29.3 µM (inactive) | 7.64 µM (inactive) | – | 87.1 µM (inactive) | – | > 100 µM (inactive) | > 100 µM (inactive) | > 100 µM (inactive) | – | > 100 µM (inactive) | > 100 µM (inactive) | > 100 µM (inactive) | > 100 µM (inactive) | > 100 µM (inactive)
